# Source: ChEMBL document CHEMBL4651402, “Screening of ~5500 FDA-approved drugs and clinical candidates for anti-SARS-CoV-2 activity” (2021)
# pIC50: −log10 of the molar value.
# Tested on: SARS-CoV-2
# Assay: microbe, parasite or virus in culture
# Conditions: Severe acute respiratory syndrome coronavirus 2, Vero C1008, 48 h; for IC50: read-out: pIC50 (converted)
SMILES,pIC50,IC50
CCOc1nc2cccc(C(=O)O)c2n1Cc1ccc(-c2ccccc2-c2nnn[nH]2)cc1,< 4.70,> 20 µM
NC(=O)[C@@H](CCC(F)(F)F)N(Cc1ccc(-c2ncon2)cc1F)S(=O)(=O)c1ccc(Cl)cc1,< 4.70,> 20 µM
CCC(C)(C)/N=C(\NC#N)Nc1cccnc1,< 4.70,> 20 µM
CC(=O)OCC1=C(C(=O)O)N2C(=O)C(NC(=O)CSc3ccncc3)C2SC1 (configuration not stated),< 4.70,> 20 µM
N#CC[C@@H](C1CCCC1)n1cc(-c2ncnc3[nH]ccc23)cn1,< 4.70,> 20 µM
N[C@H](Cc1ccc(F)cc1)C(=O)O,< 4.70,> 20 µM
CCCC(=O)OC1(C(=O)CO)CCC2C3CCC4=CC(=O)CCC4(C)C3C(O)CC21C (configuration not stated),< 4.70,> 20 µM
CN(C)[C@@H]1C(O)=C(C(N)=O)C(=O)[C@@]2(O)C(O)=C3C(=O)c4c(O)ccc(Cl)c4[C@@](C)(O)C3C[C@@H]12 (some centres not stated),< 4.70,> 20 µM
C[C@@H]1O[C@@H](O[C@@H]2C=C3CCC4C(CC[C@]5(C)[C@@H](c6ccc(=O)oc6)CC[C@]45O)[C@@]3(C)CC2)[C@H](O)[C@H](O)[C@H]1O (some centres not stated),< 4.70,> 20 µM
C[C@H]([C@@H](N)C(=O)N[C@@H](C(=O)O)[C@@H]1O[C@H](n2ccc(=O)[nH]c2=O)[C@@H](O)[C@H]1O)[C@@H](O)c1ccc(O)cn1,< 4.70,> 20 µM
NCCCN,< 4.70,> 20 µM
COc1ccc(C(=O)OC2C[C@H]3CC[C@H](C2)N3C)cc1OC (some centres not stated),< 4.70,> 20 µM
c1ccc2c3c([nH]c2c1)[C@H]1[C@H]2CC[C@H]([C@@H]4CCCN[C@@H]42)N1CC3,< 4.70,> 20 µM
CCC[C@H](NC(=O)[C@@H]1[C@H]2CCC[C@H]2CN1C(=O)[C@@H](NC(=O)[C@@H](NC(=O)c1cnccn1)C1CCCCC1)C(C)(C)C)C(=O)C(=O)NC1CC1,< 4.70,> 20 µM
Cc1nnc(C(=O)NC(C)(C)c2nc(C(=O)NCc3ccc(F)cc3)c(O)c(=O)n2C)o1,< 4.70,> 20 µM
CC(=O)N(O)C/C=C/c1cccc(Oc2ccccc2)c1,< 4.70,> 20 µM
CCC(=O)OC(OP(=O)(CCCCc1ccccc1)CC(=O)N1C[C@H](C2CCCCC2)C[C@H]1C(=O)O)C(C)C (some centres not stated),< 4.70,> 20 µM
CC1C2Cc3ccc(O)cc3C1(C)CCN2C (configuration not stated),< 4.70,> 20 µM
CC1(Cn2ccnn2)[C@H](C(=O)O)N2C(=O)C[C@H]2S1(=O)=O (some centres not stated),< 4.70,> 20 µM
CC(C)C[C@H](NC(=O)N1CCCCCC1)C(=O)N[C@H](Cc1cn(C)c2ccccc12)C(=O)N[C@H](Cc1ccccn1)C(=O)O,< 4.70,> 20 µM
c1ccc2c(c1)CN1CCCC1=N2,< 4.70,> 20 µM
C=C(NC(=O)C(=C)NC(=O)c1csc(C2=N[C@H]3c4csc(n4)[C@H]4NC(=O)c5csc(n5)[C@H]([C@@](C)(O)[C@@H](C)O)NC(=O)[C@H]5CSC(=N5)/C(=C\C)NC(=O)[C@H]([C@@H](C)O)NC(=O)c5csc(n5)[C@]3(CC2)NC(=O)[C@H](C)NC(=O)C(=C)NC(=O)[C@H](C)NC(=O)[C@H](C(C)CC)N[C@@H]2C=Cc3c([C@H](C)O)cc(nc3[C@H]2O)C(=O)O[C@@H]4C)n1)C(N)=O (some centres not stated),< 4.70,> 20 µM
O=C(O)[C@]1(O)C[C@H](O)[C@@H](O)[C@@H](O)C1,< 4.70,> 20 µM

SMILES,pIC50,IC50
CC[C@@H]1C[C@]1(NC(=O)[C@@H]1C[C@@H]2CN1C(=O)[C@H](C(C)(C)C)NC(=O)OCC(C)(C)CCCCc1cccc3c1CN(C3)C(=O)O2)C(=O)NS(=O)(=O)C1CC1,< 4.70,> 20 µM
NC[C@@H]1OB(O)c2c(OCCCO)cccc21,< 4.70,> 20 µM
CCC1CCCC(OC2CCC(N(C)C)C(C)O2)C(C)C(=O)C2=CC3C(C=C(C)C4CC(OC5OC(C)C(OC)C(OC)C5OC)CC43)C2CC(=O)O1.CCC1CCCC(OC2CCC(N(C)C)C(C)O2)C(C)C(=O)C2=CC3C(C=CC4CC(OC5OC(C)C(OC)C(OC)C5OC)CC43)C2CC(=O)O1 (configuration not stated),< 4.70,> 20 µM
CCCn1c(=O)c2[nH]c(C3CC4CC3[C@H]3O[C@@H]43)nc2n(CCC)c1=O (some centres not stated),< 4.70,> 20 µM
COc1c(N2CCC/C(=C(/F)CN)C2)c(F)cc2c(=O)c(C(=O)O)cn(C3CC3)c12,< 4.70,> 20 µM
CCO[C@@H]1O[C@@H]2O[C@@]3(C)CC[C@@H]4[C@H](C)CC[C@@H]([C@H]1C)[C@@]24OO3,< 4.70,> 20 µM
CN1[C@@H]2CC[C@H]1CC(NC(=O)n1c(=O)[nH]c3ccccc31)C2 (some centres not stated),< 4.70,> 20 µM
CC[C@H]1OC(=O)C[C@@H](O)[C@H](C)[C@@H](O[C@@H]2O[C@H](C)[C@@H](O[C@H]3C[C@@](C)(O)[C@@H](O)[C@H](C)O3)[C@H](N(C)C)[C@H]2O)[C@@H](CC=O)C[C@@H](C)C(=O)/C=C\C(C)=C/[C@@H]1CO[C@@H]1O[C@H](C)[C@@H](O)[C@@H](OC)[C@H]1OC,< 4.70,> 20 µM
[2H]c1c(C([2H])([2H])[2H])nc(N2CC3CN(C(=O)c4c(F)cccc4-n4nccn4)CC3C2)nc1C([2H])([2H])[2H] (configuration not stated),< 4.70,> 20 µM
CC(C)n1c(/C=C/[C@@H](O)C[C@@H](O)CC(=O)O)c(-c2ccc(F)cc2)c2ccccc21.CC(C)n1c(/C=C/[C@H](O)C[C@H](O)CC(=O)O)c(-c2ccc(F)cc2)c2ccccc21,< 4.70,> 20 µM
O=C(OC1C[C@@H]2CC3C[C@@H](C1)N2CC3=O)c1c[nH]c2ccccc12 (some centres not stated),< 4.70,> 20 µM
CCC1C(=O)Nc2ccc(F)cc2N1C(=O)OC(C)C (configuration not stated),< 4.70,> 20 µM
Cc1nc2n(c(=O)c1CCN1CCC(c3noc4cc(F)ccc34)CC1)CCC[C@@H]2O,< 4.70,> 20 µM
CC[C@H](C)n1ncn(-c2ccc(N3CCN(c4ccc(OC[C@H]5CO[C@@](Cn6cncn6)(c6ccc(F)cc6F)O5)cc4)CC3)cc2)c1=O,< 4.70,> 20 µM
CC(=C(CCO)SSCC1CCCO1)N(C=O)Cc1cnc(C)nc1N (configuration not stated),< 4.70,> 20 µM
N[C@H](CCC(=O)NCCS(=O)(=O)O)C(=O)O,< 4.70,> 20 µM
CC[C@@H](C)C(=O)O[C@H]1[C@H](O)[C@H]2[C@@H](CN3C[C@@H](C)CC[C@H]3[C@@]2(C)O)[C@@H]2C[C@]34O[C@@]5(O)[C@@H](OC(=O)[C@](C)(O)CC)CC[C@@]3(C)[C@@H]5[C@@H](OC(C)=O)[C@@H](OC(C)=O)[C@H]4[C@@]21O,< 4.70,> 20 µM
O=C(O)C1(c2ccc3c(c2)OC[C@H](Cc2ccc(-c4ccccc4)cc2)[C@H]3O)CCCC1,< 4.70,> 20 µM
C=C1[C@H](CO)[C@@H](O)C[C@@H]1n1cnc2c(=O)[nH]c(N)nc21,< 4.70,> 20 µM
CC(=O)N[C@@H](CC(C)C)C(=O)O,< 4.70,> 20 µM
CCOC(=O)[C@H](CCc1ccccc1)N[C@@H](C)C(=O)N1CCC[C@H]1C(=O)O,< 4.70,> 20 µM
Nc1cccc2c1C(=O)c1cccc(N)c1C2=O,< 4.70,> 20 µM
CNC=O,< 4.70,> 20 µM
